The numbers were not newly measured in the CATMoS acute toxicity set (Mansouri et al. 2021), which cites them from elsewhere.

SMILES strings stand for the structures.

This series in a line: rat acute oral toxicity. Conditions: in vivo.
In the case of `CC(=O)C(N=Nc1ccc(-c2ccc(N=NC(C(C)=O)C(=O)Nc3ccc(C)cc3)c(Cl)c2)cc1Cl)C(=O)Nc1ccc(C)cc1` (stereo not drawn), the LD50 is 2230 mg/kg.
Consider `O=C(C=Cc1ccccc1O)OC(=O)C=Cc1ccccc1O`, for which the median lethal dose (LD50) was 1510 mg/kg.
Turning to `CCOC(CC)(C1=NCC(C)(C)CN1)c1ccc(Cl)cc1` (stereo not drawn), the LD50 was 58 mg/kg.
With `CC1=COC(C)(C=O)CC1` (stereo not drawn), the LD50 is 2460 mg/kg.
Take `O=Cc1ccc(O)cc1O`: the LD50 is 400 mg/kg.
As for `CC1(C)S[C@@H]2[C@H](NC(=O)C(C(=O)O)c3ccsc3)C(=O)N2[C@H]1C(=O)O` (stereo partly drawn), the median lethal dose (LD50) was 16000 mg/kg.
For `CCOC(=O)NS(=O)(=O)c1ccc(Cl)cc1`, the LD50 is 380 mg/kg.
Turning to `C/C=C(C)/C=C/C=C(C)C`, the LD50 was 1900 mg/kg.
In the case of `CCCCNC(=S)N(CCCC)CCCC`, the LD50 is 3000 mg/kg.
For `CNC(=O)C(Cl)C(C)=O` (stereo not drawn), the LD50 was 700 mg/kg.
In the case of `O=C(O)CC(O)c1ccc(-c2ccc(Cl)cc2)o1` (stereo not drawn), the LD50 is 2460 mg/kg.
For the molecule `COC(=O)CNC[P@](=O)(O)Oc1ccccc1`, the LD50 was 4100 mg/kg.
Regarding `CC(=O)CC(=O)Nc1ccc(C)cc1C`, the LD50 was 3000 mg/kg.
Regarding `CC1(C)C(C(=O)OC(C#N)c2cccc(Oc3ccccc3)c2)C1(C)C` (stereo not drawn), the LD50 is 18 mg/kg.
For `CCOP(=S)(OCC)SCSc1cc(Cl)ccc1Cl`, the LD50 was 44 mg/kg.
Turning to `CCCCCCCC[N+](C)(CCCCCCCC)CCCCCCCC`, the LD50 is 223 mg/kg.
For `CCCCCCC[N+](CC)(CC)CCCCc1ccc(Cl)cc1`, the LD50 was 456 mg/kg.
As to `CC(C)=CCOC(=O)c1ccccc1`, the LD50 is 4700 mg/kg.
Take `N#CC(Cl)(Cl)C#N`: the LD50 is 130 mg/kg.
For `COc1ccc(C)cc1NC(C)=O`, the LD50 was 2240 mg/kg.
Take `CCC(C)OCCO` (stereo not drawn): the LD50 was 790 mg/kg.
Regarding `COc1ccc(CCN(C)CCc2ccc(OC)c(OC)c2)cc1OC`, the LD50 is 178 mg/kg.
On to `CCOC(C1=NCC(C)(C)CN1)c1cccc(F)c1` (stereo not drawn), for which the median lethal dose (LD50) was 750 mg/kg.
Regarding `CC(=O)O[C@@H]1C[C@]2(O)[C@H](CC[C@]3(C)[C@@H](c4ccc(=O)oc4)CC[C@@]32O)[C@@]2(C)CC[C@H](O[C@@H]3O[C@H](CO)[C@@H](O)[C@H](O)[C@H]3O)C=C12`, the LD50 is 0.43 mg/kg.
For `O=C1CCC(N2C(=O)c3ccccc3C2=O)C(=O)N1` (stereo not drawn), the LD50 was 113 mg/kg.
Take `CCCCN(C=O)CCCC`: the median lethal dose (LD50) was 620 mg/kg.
Turning to `O=C1C=CC(=O)c2ccccc21`, the LD50 was 190 mg/kg.
As to `O=C1NN=C(c2ccccc2)CO1`, the LD50 is 441 mg/kg.
Regarding `COc1c2occc2cc2ccc(=O)oc12`, the LD50 was 791 mg/kg.
As for `CCC=CCC=CCC=CCC=CCC=CCC=CCCC(=O)O`, the LD50 was 10000 mg/kg.
Take `COP(=O)(OC)SCn1c(=O)oc2cc(Cl)cnc21`: the LD50 is 1180 mg/kg.
Take `CCC(O)C(c1ccccc1)N1CCN(CCOc2ccccc2C)CC1` (stereo not drawn): the LD50 is 700 mg/kg.
With `CCN(N=O)C(C)C`, the LD50 is 1100 mg/kg.
In the case of `CCN(CC)CCOc1ccc(C(=C(Cl)c2ccccc2)c2ccccc2)cc1`, the LD50 was 5750 mg/kg.
Turning to `Cc1ccc(N)cc1Cl`, the LD50 is 655 mg/kg.
For `FC(F)(F)c1nc2ccc(I)cc2[nH]1`, the LD50 was 96 mg/kg.
On to `Fc1ccc(Br)c(F)c1`, for which the LD50 is 300 mg/kg.
For `COP1(=S)OCc2ccccc2O1` (stereo not drawn), the 50% lethal dose (LD50) is 102 mg/kg.
On to `COP(=S)(OC)SC1OCCOC1SP(=S)(OC)OC` (stereo not drawn), for which the LD50 was 350 mg/kg.
With `Cc1ccc(O)c(-n2nc3ccccc3n2)c1`, the LD50 is 10000 mg/kg.
Turning to `CCOP(=O)(OCC)SCC1(C)SCCS1`, the LD50 was 28 mg/kg.
With `CCOc1ccccc1N1CCN(CCC=Cc2ccc3[nH]c(=O)ccc3c2)CC1`, the median lethal dose (LD50) was 500 mg/kg.
Regarding `Nc1nc2ccccc2o1`, the LD50 was 600 mg/kg.
On to `CCOC(=O)Nc1cccc(OC(=O)Nc2ccccc2)c1`, for which the LD50 is 9600 mg/kg.
With `CCCCC(CC)COC(=O)CS` (stereo not drawn), the LD50 is 303 mg/kg.
With `CCC(O)CO` (stereo not drawn), the LD50 was 16000 mg/kg.
On to `CCCCOC(=O)C1CCC(C(=O)OCCCC)C1` (stereo not drawn), for which the LD50 was 6500 mg/kg.
As for `CCN(CC)CCOC(=O)Cc1ccc2c(c1)OCc1ccccc1C2=O`, the LD50 was 150 mg/kg.
`Nc1c(I)cc(I)c(C(=O)N(CCC(=O)O)c2ccccc2)c1I`: the LD50 is 2800 mg/kg.
Regarding `CCOC(CN1CCN(CC(C)C(=O)c2ccccc2)CC1)c1ccccc1` (stereo not drawn), the median lethal dose (LD50) is 763 mg/kg.
For the molecule `O=C(OCCN1CCOCC1)c1cccnc1Nc1cccc(C(F)(F)F)c1`, the LD50 is 4300 mg/kg.
Take `CC(C)(COCC1CO1)COCC1CO1` (stereo not drawn): the LD50 was 4500 mg/kg.
For the molecule `CC(C)c1cc([N+](=O)[O-])cc([N+](=O)[O-])c1O`, the LD50 is 63 mg/kg.
Take `CCc1oc2ccccc2c1C(=O)c1cc(Br)c(O)c(Br)c1`: the LD50 was 248 mg/kg.
In the case of `C=C(C)CCl`, the LD50 was 848 mg/kg.
For `CCOP(=O)(N=C1SCCS1)OCC`, the LD50 is 8.9 mg/kg.
Take `OCC(Br)C(Br)CO` (stereo not drawn): the LD50 was 2460 mg/kg.
For the molecule `CC1CC2OC2CC1COC(=O)CCCCC(=O)OCC1CC2OC2CC1C` (stereo not drawn), the LD50 was 4290 mg/kg.
Consider `C=CCNP(=O)(OC=C(Cl)Cl)OC1CCCCC1` (stereo not drawn), for which the LD50 is 100 mg/kg.
Turning to `c1ccc(-c2cccc(-c3ccccc3)c2)cc1`, the LD50 was 2400 mg/kg.
As for `O=C(Cl)c1ccc(Cl)cc1Cl`, the LD50 is 4640 mg/kg.
For `CC(=O)c1ccc2oc3ncccc3c(=O)c2c1`, the LD50 is 1680 mg/kg.
With `CC(=O)O`, the LD50 was 3250 mg/kg.

As a reminder, the LD50 is the dose at which mortality reaches 50%.
